Measurements: PMC7914897, “Cytotoxic Potential of a-Azepano- and 3-Amino-3,4-SeCo-Triterpenoids” (International Journal of Molecular Sciences, 2021)

Key:
MCF7 (Breast cancer) = assay: NCI-60 screen (SRB, 48 h); conditions: Homo sapiens
K-562 (Leukemia) = assay: NCI-60 screen (SRB, 48 h); conditions: Homo sapiens
TK-10 (Renal cancer) = assay: NCI-60 screen (SRB, 48 h); conditions: Homo sapiens
HCT-116 (Colon cancer) = assay: NCI-60 screen (SRB, 48 h); conditions: Homo sapiens
UACC-62 (Melanoma) = assay: NCI-60 screen (SRB, 48 h); conditions: Homo sapiens
LOX IMVI (Melanoma) = assay: NCI-60 screen (SRB, 48 h); type: cell-based; conditions: Homo sapiens
U251 (CNS cancer) = assay: NCI-60 screen (SRB, 48 h); conditions: Homo sapiens
RXF 393 (Renal cancer) = assay: NCI-60 screen (SRB, 48 h); conditions: Homo sapiens
SK-MEL-2 (Melanoma) = assay: NCI-60 screen (SRB, 48 h); conditions: Homo sapiens
KM12 (Colon cancer) = assay: NCI-60 screen (SRB, 48 h); conditions: Homo sapiens
HS 578T (Breast cancer) = assay: NCI-60 screen (SRB, 48 h); conditions: Homo sapiens
[1] = test system: NCI/ADR-RES (Ovarian cancer); assay: NCI-60 screen (SRB, 48 h); conditions: Homo sapiens
Leukemia subpanel = assay: cells; conditions: Homo sapiens
SN12C (Renal cancer) = assay: NCI-60 screen (SRB, 48 h); conditions: Homo sapiens
[2] = test system: MDA-MB-31/ATCC (Breast cancer); assay: NCI-60 screen (SRB, 48 h); conditions: Homo sapiens
IGROV1 (Ovarian cancer) = assay: NCI-60 screen (SRB, 48 h); conditions: Homo sapiens
SNB-19 (CNS cancer) = assay: NCI-60 screen (SRB, 48 h); conditions: Homo sapiens
[3] = test system: A549/ATCC (NSC lung cancer); assay: NCI-60 screen (SRB, 48 h); conditions: Homo sapiens
[4] = test system: NIH 3T3 (non-malignant mouse fibroblasts); assay: SRB cytotoxicity assay, 72 h; type: cell-based; conditions: Mus musculus, NIH3T3; NIH 3T3, 72 h, cut-off 30 µM; read-out: EC50
How it was run: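 Exponentially growing cells were seeded to avoid confluence, then exposed after 24 h to serial compound dilutions (0–30 µM; DMSO ≤0.5%) for 72 h. Cells were fixed with 10% TCA at 4 °C, stained with 0.4% SRB, and bound dye dissolved in 10 mM Tris base was read at 570 nm. EC50 came from survival relative to untreated controls.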

PC-3 (Prostate cancer) = assay: NCI-60 screen (SRB, 48 h); conditions: Homo sapiens
Prostate cancer subpanel = assay: NCI-60 screen, subpanel; conditions: Homo sapiens
MALME-3M (Melanoma) = assay: NCI-60 screen (SRB, 48 h); conditions: Homo sapiens
HCT-15 (Colon cancer) = assay: NCI-60 screen (SRB, 48 h); conditions: Homo sapiens

C=C(C)[C@@H]1CC[C@]2(C)[C@H](C=CC3=C4C[C@@](C)(CO)CC[C@]4(C)CC[C@]32C)[C@@]1(C)CCCN [Compound 20]
GI50 (MCF7 (Breast cancer); MCF7): 1600 nM
IC (TGI) (MCF7 (Breast cancer); MCF7, 48 h, read-out: TGI): 3.4 µM
CC50 (MCF7 (Breast cancer); MCF7, read-out: LC50): 7.23 µM
GI50 (K-562 (Leukemia); K562): 1800 nM
IC (TGI) (K-562 (Leukemia); K562, 48 h, read-out: TGI): 5.04 µM
CC50 (K-562 (Leukemia); K562, read-out: LC50): > 100 µM
GI50 (TK-10 (Renal cancer); TK-10): 1780 nM
IC (TGI) (TK-10 (Renal cancer); TK-10, 48 h, read-out: TGI): 3.36 µM
CC50 (TK-10 (Renal cancer); TK-10, read-out: LC50): 6.37 µM
GI50 (HCT-116 (Colon cancer); HCT-116): 1690 nM
IC (TGI) (HCT-116 (Colon cancer); HCT-116, 48 h, read-out: TGI): 3.21 µM
CC50 (HCT-116 (Colon cancer); HCT-116, read-out: LC50): 6.08 µM
GI50 (UACC-62 (Melanoma); UACC-62): 1780 nM
IC (TGI) (UACC-62 (Melanoma); UACC-62, 48 h, read-out: TGI): 3.17 µM
CC50 (UACC-62 (Melanoma); UACC-62, read-out: LC50): 5.66 µM
IC (TGI) (LOX IMVI (Melanoma); 48 h): 2.7 µM
activity at 10 µM (LOX IMVI (Melanoma); 48 h, 1 dose 10 µM, read-out: Growth % of the Most Sensitive Cell Lines): -100%
GI50 (LOX IMVI (Melanoma); read-out: GI50): 1370 nM
CC50 (LOX IMVI (Melanoma); read-out: LC50 (the source's name)): 5.31 µM
GI50 (U251 (CNS cancer); U-251): 1640 nM
IC (TGI) (U251 (CNS cancer); U-251, 48 h, read-out: TGI): 3.32 µM
CC50 (U251 (CNS cancer); U-251, read-out: LC50): 6.72 µM
GI50 (RXF 393 (Renal cancer); RXF 393): 1620 nM
IC (TGI) (RXF 393 (Renal cancer); RXF 393, 48 h, read-out: TGI): 3.07 µM
CC50 (RXF 393 (Renal cancer); RXF 393, read-out: LC50): 5.81 µM
GI50 (SK-MEL-2 (Melanoma); SK-MEL-2): 1920 nM
IC (TGI) (SK-MEL-2 (Melanoma); SK-MEL-2, 48 h, read-out: TGI): 3.58 µM
CC50 (SK-MEL-2 (Melanoma); SK-MEL-2, read-out: LC50): 6.66 µM
GI50 (KM12 (Colon cancer); KM12): 1600 nM
IC (TGI) (KM12 (Colon cancer); KM12, 48 h, read-out: TGI): 3.02 µM
CC50 (KM12 (Colon cancer); KM12, read-out: LC50): 5.67 µM
GI50 (HS 578T (Breast cancer)): 1800 nM
IC (TGI) (HS 578T (Breast cancer); 48 h, read-out: TGI): 4.07 µM
CC50 (HS 578T (Breast cancer); read-out: LC50): 9.2 µM
GI50 [1]: 1740 nM
IC (TGI) ([1]; 48 h, read-out: TGI): 3.37 µM
CC50 ([1]; read-out: LC50): 6.54 µM
IC (TGI) (Leukemia subpanel; 48 h, read-out: TGI MG_MID): 4.52 µM
GI50 (Leukemia subpanel; read-out: GI50 MG_MID): 1820 nM
CC50 (Leukemia subpanel; read-out: LC50 MG_MID): > 100 µM
GI50 (SN12C (Renal cancer)): 1640 nM
IC (TGI) (SN12C (Renal cancer); 48 h, read-out: TGI): 3.15 µM
CC50 (SN12C (Renal cancer); read-out: LC50): 6.03 µM
GI50 [2]: 1770 nM
IC (TGI) ([2]; 48 h, read-out: TGI): 3.27 µM
CC50 ([2]; read-out: LC50): 6.02 µM
GI50 (IGROV1 (Ovarian cancer); IGROV-1): 1500 nM
IC (TGI) (IGROV1 (Ovarian cancer); IGROV-1, 48 h, read-out: TGI): 2.95 µM
CC50 (IGROV1 (Ovarian cancer); IGROV-1, read-out: LC50): 5.8 µM
GI50 (SNB-19 (CNS cancer); SNB-19): 1750 nM
IC (TGI) (SNB-19 (CNS cancer); SNB-19, 48 h, read-out: TGI): 3.17 µM
CC50 (SNB-19 (CNS cancer); SNB-19, read-out: LC50): 5.74 µM
GI50 ([3]; A549): 1600 nM
IC (TGI) ([3]; A549, 48 h, read-out: TGI): 3.18 µM
CC50 ([3]; A549, read-out: LC50): 6.34 µM
EC50 [4]: 3.46 ± 0.3 µM
GI50 (PC-3 (Prostate cancer); PC-3): 1700 nM
IC (TGI) (PC-3 (Prostate cancer); PC-3, 48 h, read-out: TGI): 3.28 µM
CC50 (PC-3 (Prostate cancer); PC-3, read-out: LC50): 6.33 µM
IC (TGI) (Prostate cancer subpanel; 48 h, read-out: TGI MG_MID): 3.22 µM
GI50 (Prostate cancer subpanel; read-out: GI50 MG_MID): 1710 nM
GI50 (MALME-3M (Melanoma)): 1460 nM
IC (TGI) (MALME-3M (Melanoma); 48 h, read-out: TGI): 2.91 µM
CC50 (MALME-3M (Melanoma); read-out: LC50): 5.82 µM
GI50 (HCT-15 (Colon cancer); HCT-15): 1530 nM
IC (TGI) (HCT-15 (Colon cancer); HCT-15, 48 h, read-out: TGI): 2.92 µM
CC50 (HCT-15 (Colon cancer); HCT-15, read-out: LC50): 5.56 µM
